In patent US20250019374A1, “PROTEIN TYROSINE PHOSPHATASE INHIBITORS AND METHODS OF USE THEREOF” (Calico Life Sciences LLC, priority 2021, published 2025):
Like-named read-outs stand apart in the source and are kept apart here.

Key:
[1] = target: His tagged full-length PTPN1 protein (Homo sapiens (Human), UniProt P18031); test: PTPN1 Mobility Shift Assay (MSA); assay type: biochemical; conditions: enzyme 0.5 nM, substrate 2 μM
Protocol: Example III-2: Mobility Shift Assay (MSA) Used to Determine Potency of PTPN1 Inhibitors
Compound activity was determined using in house His tagged full-length PTPN1 protein (SEQ ID NO: 3) in an in vitro enzymatic reaction. The enzymatic assay used to determine activity is a mobility shift assay using a LabChip EZ Reader by Caliper Life Sciences. The enzymatic reaction was carried out in assay buffer (50 mM HEPES pH 7.5, 1 mM EGTA, 10 mM EDTA, 0.01% Tween® 20, and 2 mM DTT). The compounds were dispensed on a white 384 well ProxiPlate™ (PerkinElmer Cat ^#6008289) plate using a Labcyte Echo® liquid handler at varying concentrations (12 point, 1:3 dilution). The enzyme (at 0.5 nM) was incubated with compound for 10 minutes at room temperature. Thereafter, the substrate (phosphorylated insulin receptor probe sequence: ((OG488)-(NH—CH2—CH2—O—CH2—CH2—O—CH2—CO)-T-R-D-I—(PY)-E-T-D-Y—Y—R—K—K—NH2) (SEQ ID NO: 2) was added at 2 μM to the plates and incubated for another 10 minutes at room temperature. Finally, a quench solution (water and 4-bromo-3-(2-oxo-2-propoxyethoxy)-5-(3-{[1-(phenylmethanesulfonyl)piperidin-4-yl]amino}phenyl)thiophene-2-carboxylic acid) was added to the plates, which were then run on the EZ Reader (excitation 488 nm, emission 530 nm) to measure % conversion (the amount of phosphorylated substrate which was de-phosphorylated by PTPN1). […] The % inhibition was then used to calculate the IC50 values.

[2] = target: His tagged PTPN2 (TC45) protein (Homo sapiens (Human), UniProt P17706); test: PTPN2 Mobility Shift Assay (MSA); assay type: biochemical; conditions: for Dihydrobenzofuran or Indoline x-fold>potency biochemical: x-fold versus corresponding chromane comparator, PTPN2 MSA
His tagged PTPN2 (TC45) protein, sequence (P17706 other isoform, or with tags, fused parts or gaps): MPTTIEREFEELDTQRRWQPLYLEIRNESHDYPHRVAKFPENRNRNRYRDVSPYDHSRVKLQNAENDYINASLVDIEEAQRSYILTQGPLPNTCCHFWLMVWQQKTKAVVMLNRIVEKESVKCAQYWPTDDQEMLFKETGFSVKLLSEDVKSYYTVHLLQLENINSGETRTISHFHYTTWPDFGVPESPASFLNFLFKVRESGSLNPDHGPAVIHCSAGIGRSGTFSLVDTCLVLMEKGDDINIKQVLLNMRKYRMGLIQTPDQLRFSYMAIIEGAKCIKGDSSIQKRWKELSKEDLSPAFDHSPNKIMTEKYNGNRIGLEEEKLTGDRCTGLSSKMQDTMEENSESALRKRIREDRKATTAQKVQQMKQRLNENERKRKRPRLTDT
Protocol: Example III-1: Mobility Shift Assay (MSA) Used to Determine Potency of PTPN2 Inhibitors
Compound activity was determined using in house His tagged PTPN2 (TC45) protein (SEQ ID NO: 1) in an in vitro enzymatic reaction. The enzymatic assay used to determine activity was a mobility shift assay using a LabChip EZ Reader by Caliper Life Sciences. The enzymatic reaction was carried out in assay buffer (50 mM HEPES pH 7.5, 1 mM EGTA, 10 mM EDTA, 0.01% Tween® 20, and 2 mM DTT). The compounds were dispensed on a white 384 well ProxiPlate™ (PerkinElmer Catalog #6008289) plate using the Labcyte Echo at varying concentrations (12 point, 1:3 dilution). The enzyme (at 0.5 nM) was incubated with compound for 10 minutes at room temperature. Thereafter, the substrate (phosphorylated insulin receptor probe sequence: ((OG488)-(NH—CH2—CH2—O—CH2—CH2—O—CH2—CO)-T-R-D-I—(PY)-E-T-D-Y—Y—R—K—K—NH2) (SEQ ID NO: 2) was added at 2 μM to the plates and incubated for another 10 minutes at room temperature. Finally, a quench solution (water and 4-bromo-3-(2-oxo-2-propoxyethoxy)-5-(3-{[1-(phenylmethanesulfonyl)piperidin-4-yl]amino}phenyl)thiophene-2-carboxylic acid) was added to the plates, which were then run on the EZ Reader (excitation 488 nm, emission 530 nm) to measure % conversion (the amount of phosphorylated substrate which was de-phosphorylated by PTPN2). […] The % inhibition was then used to calculate the IC50 values.

[3] = test system: IFNγ-induced STAT1 phosphorylation (pSTAT1) in B16F10 cells; test: B16F10 Phospho-STAT1 HTRF proximal pharmacodynamic (PD) assay; assay type: cell-based, murine; conditions: for EC50: B16-F10, B16F10 cells; for Dihydrobenzofuran or Indoline x-fold>potency cellular: x-fold versus corresponding chromane comparator, B16F10 pSTAT1
Protocol: Example III-3: B16F10 (Murine Melanoma Cells) Phospho-STAT1 HTRF Proximal Pharmacodynamic (PD) Assay
B16F10 cells were grown and maintained in high glucose DMEM (Gibco, Catalog^#11965-092, Dun Laoghaire Co Dublin) supplemented with 10% fetal bovine serum (Gibco, Catalog^#10082-139, Dun Laoghaire Co Dublin). The cells were pelleted and resuspended in high glucose DMEM without phenol red (Gibco, Catalog^#11054-020, Dun Laoghaire Co Dublin), supplemented with 10% fetal bovine serum and plated in a 384 well Corning plate (product^#3765, Corning, NY) at 11,000 cells per well in a volume of 20 μL. The cells were dosed with the compounds of interest using an Echo Liquid Handler (Beckman Coulter, Brea, CA) at 50 μM top dose with 3-fold dilutions down to 0.002679 μM for a 10-point dose response. The plate was incubated for 3 hours at 37° C. and subsequently treated with recombinant mouse IFNγ (R&D Systems, Catalog^#485-MI, Minneapolis, MN; 100 nM final concentration) for 10 minutes at 37° C. to induce STAT1 phosphorylation followed by 3.3 μM staurosporine treatment for 1 hour at 37° C. to terminate phosphorylation. Media was then aspirated and 20 μL of 1× lysis buffer/blocking reagent (Cisbio Phospho-STAT1 kit, part^# 63ADK026PEH, Bedford, MA) was added. The plate was placed on a plate shaker for 30 minutes at room temperature, sealed, and stored at −80° C. until needed. To thaw, the plate was placed on shaker at room temperature until completely thawed while the antibody master mix was made (1:40 Phospho-STAT1 Eu Cryptate antibody, 1:40 Phospho-STAT d2 antibody, with the detection buffer; Cisbio Phospho-STAT1 kit, part^#63ADK026PEH, Bedford, MA). The antibody master mix was then dispensed at 4 μL per well into a 384 ProxiPlate Plus (PerkinElmer, part^#6008289, Waltham, MA) and 16 μL of lysate was added from the Corning plate to the Proxiplate using a VIAFLO 384 (INTEGRA). The plate was incubated for 3 hours at room temperature and read on an EnVision® (Perkin Elmer) plate reader with laser excitation at 335 nm and emission at 665 nm. Dotmatics Studies (Bishop's Stortford, UK) was utilized to generate all dose-response curves and calculate EC50s and are shown in Table 2.

[4] = Table 3, dihydrobenzofuran or indoline compound (X = O or NH)
[5] = 3 hours compound, 100 nM mouse IFNγ 10 minutes, read-out: B16F10 IFNγ Induced pSTAT1 EC50
[6] = Mus musculus, Table 3, dihydrobenzofuran or indoline compound (X = O or NH), read-out: pSTAT1 EC50

His tagged full-length PTPN1 protein, sequence (P18031 whole entry): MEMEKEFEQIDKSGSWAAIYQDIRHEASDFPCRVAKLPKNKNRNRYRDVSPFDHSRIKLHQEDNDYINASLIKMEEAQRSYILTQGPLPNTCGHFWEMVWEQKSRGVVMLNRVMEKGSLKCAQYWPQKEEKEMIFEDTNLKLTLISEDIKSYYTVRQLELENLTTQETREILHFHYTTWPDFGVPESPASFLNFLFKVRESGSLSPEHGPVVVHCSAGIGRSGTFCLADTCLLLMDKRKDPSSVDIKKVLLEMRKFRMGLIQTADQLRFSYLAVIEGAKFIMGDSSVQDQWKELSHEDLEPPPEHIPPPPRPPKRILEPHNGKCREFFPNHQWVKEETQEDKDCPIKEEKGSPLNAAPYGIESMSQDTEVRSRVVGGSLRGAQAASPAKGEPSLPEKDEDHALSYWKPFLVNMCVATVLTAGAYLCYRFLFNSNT

IC50 [1]	EC50 [3, 5]	EC50 [3, 6]	Compound	IC50 [2, 4]	IC50 ([2]; enzyme 0.5 nM, substrate 2 μM)	Dihydrobenzofuran or Indoline x-fold>potency biochemical [2]	Dihydrobenzofuran or Indoline x-fold>potency cellular [3]
0.01 to 0.1 µM	3.09 µM	3.09 µM	O=C1CN(c2c(O)cc3c(c2F)C[C@H](CNCCC2CCOCC2)O3)S(=O)(=O)N1 [Compound 125, 5-[(2R)-4-fluoro-6-hydroxy-2-({[2-(oxan-4-yl)ethyl]amino}methyl)-2,3-dihydro-1-benzofuran-5-yl]-1λ^6,2,5-thiadiazolidine-1,1,3-trione]	0.00832 µM	< 0.01 µM	2.2	10.4
0.01 to 0.1 µM	10.8 µM	10.8 µM	O=C1CN(c2c(O)cc3c(c2F)C[C@H](CNCCCc2ccccc2)O3)S(=O)(=O)N1 [Compound 127, 5-[(2R)-4-fluoro-6-hydroxy-2-{[(3-phenylpropyl)amino]methyl}-2,3-dihydro-1-benzofuran-5-yl]-1λ^6,2,5-thiadiazolidine-1,1,3-trione]	0.00405 µM	< 0.01 µM	4.7	>4.6
0.01 to 0.1 µM	> 50 µM	> 50 µM	CC1=C(CCNC[C@H]2Cc3c(cc(O)c(N4CC(=O)NS4(=O)=O)c3F)O2)C(C)(C)CCC1 [Compound 128, 5-[(2R)-4-fluoro-6-hydroxy-2-({[2-(2,6,6-trimethylcyclohex-1-en-1-yl)ethyl]amino}methyl)-2,3-dihydro-1-benzofuran-5-yl]-1λ^6,2,5-thiadiazolidine-1,1,3-trione]	0.00181 µM	< 0.01 µM	12.5	~1.0
0.01 to 0.1 µM	1.29 µM	1.29 µM	O=C1CN(c2c(O)cc3c(c2F)C[C@H](CNCC2CC(c4ccccc4)C2)O3)S(=O)(=O)N1 (stereo partly drawn) [Compound 129, 5-[(2R)-4-fluoro-6-hydroxy-2-({[(3-phenylcyclobutyl)methyl]amino}methyl)-2,3-dihydro-1-benzofuran-5-yl]-1λ^6,2,5-thiadiazolidine-1,1,3-trione]	0.00251 µM	< 0.01 µM	3.3	>38.8
0.01 to 0.1 µM	> 50 µM	> 50 µM	O=C1CN(c2c(O)cc3c(c2F)C[C@H](CNCC2CCC(C(F)(F)F)CC2)O3)S(=O)(=O)N1 (stereo partly drawn) [Compound 130, 5-{(2R)-4-fluoro-6-hydroxy-2-[({[4-(trifluoromethyl)cyclohexyl]methyl}amino)methyl]-2,3-dihydro-1-benzofuran-5-yl}-1λ^6,2,5-thiadiazolidine-1,1,3-trione]	0.00438 µM	< 0.01 µM	6.1	~1.0
0.01 to 0.1 µM	22.1 µM	22.1 µM	O=C1CN(c2c(O)cc3c(c2F)C[C@H](CNCC2(CF)CC2)O3)S(=O)(=O)N1 [Compound 131, 5-{(2R)-4-fluoro-2-[({[1-(fluoromethyl)cyclopropyl]methyl}amino)methyl]-6-hydroxy-2,3-dihydro-1-benzofuran-5-yl}-1λ^6,2,5-thiadiazolidine-1,1,3-trione]	0.0209 µM	0.01 to 0.1 µM	2.4	>2.3
> 0.1 µM	4.69 µM	–	CC(C)CNC[C@@H]1Cc2c(cc(O)c(N3CC(=O)NS3(=O)=O)c2F)N1 [Compound 132, 5-[(2S)-4-fluoro-6-hydroxy-2-{[(2-methylpropyl)amino]methyl}-2,3-dihydro-1H-indol-5-yl]-1λ^6,2,5-thiadiazolidine-1,1,3-trione]	–	0.01 to 0.1 µM	–	–
0.01 to 0.1 µM	1.24 µM	–	CC(C)CNC[C@H]1Cc2c(cc(O)c(N3CC(=O)NS3(=O)=O)c2F)N1 [Compound 133, 5-[(2R)-4-fluoro-6-hydroxy-2-{[(2-methylpropyl)amino]methyl}-2,3-dihydro-1H-indol-5-yl]-1λ^6,2,5-thiadiazolidine-1,1,3-trione]	–	0.01 to 0.1 µM	–	–
0.01 to 0.1 µM	0.947 µM	–	CCC(CC)CNC[C@H]1Cc2c(cc(O)c(N3CC(=O)NS3(=O)=O)c2F)N1 [Compound 134, 5-[(2R)-2-{[(2-ethylbutyl)amino]methyl}-4-fluoro-6-hydroxy-2,3-dihydro-1H-indol-5-yl]-1λ^6,2,5-thiadiazolidine-1,1,3-trione]	–	0.01 to 0.1 µM	–	–
0.01 to 0.1 µM	0.756 µM	–	CCCNC[C@H]1Cc2c(cc(O)c(N3CC(=O)NS3(=O)=O)c2F)N1 [Compound 135, 5-{(2R)-4-fluoro-6-hydroxy-2-[(propylamino)methyl]-2,3-dihydro-1H-indol-5-yl}-1λ^6,2,5-thiadiazolidine-1,1,3-trione]	–	0.01 to 0.1 µM	–	–
0.01 to 0.1 µM	1.23 µM	–	COCCNC[C@H]1Cc2c(cc(O)c(N3CC(=O)NS3(=O)=O)c2F)N1 [Compound 136, 5-[(2R)-4-fluoro-6-hydroxy-2-{[(2-methoxyethyl)amino]methyl}-2,3-dihydro-1H-indol-5-yl]-1λ^6,2,5-thiadiazolidine-1,1,3-trione]	–	0.01 to 0.1 µM	–	–
0.01 to 0.1 µM	0.904 µM	–	O=C1CN(c2c(O)cc3c(c2F)C[C@H](CNCC2CCC2)N3)S(=O)(=O)N1 [Compound 137, 5-[(2R)-2-{[(cyclobutylmethyl)amino]methyl}-4-fluoro-6-hydroxy-2,3-dihydro-1H-indol-5-yl]-1λ^6,2,5-thiadiazolidine-1,1,3-trione]	–	0.01 to 0.1 µM	–	–
